Measured values: PMC10812557, “Progressive Design of a Ranatuerin-2 Peptide from Amolops wuyiensis: Enhancement of Bioactivity and In Vivo Efficacy” (Antibiotics, 2023)
Bridge positions count the residues as written; N and C are the ends. Peptide text beside a SMILES is read from it.

How the values were obtained:
E. faecium (NTCC 12697) [1] = test: microbe, parasite or virus in culture; type: cell-based; details: NTCC 12697, 18 h
Source text: (§1) The MIC and MBC assays were used to assess the inhibitory activities of all 5 analogues of R2AW on the growth of planktonic microorganisms. The MIC is the lowest concentration that prevents the viable growth of bacteria. The MBC is the lowest concentration that results in bacterial death. Six microorganisms were used to detect the antimicrobial activity of peptides, including Gram-positive bacteria S. aureus (NCTC 10788), MRSA (NCTC 12493), Enterococcus faecalis (E. faecalis) (NCTC 12697), Gram-negative bacteria E. coli […], Klebsiella pneumoniae (K. pneumoniae) (ATCC 43816), and Pseudomonas aeruginosa (P. aeruginosa) (ATCC 9027). According to the assay described previously, the microorganisms were inoculated at 37 °C overnight and diluted to 5 × 10^5 CFU/mL after reaching the logarithmic growth period. The peptide stock solution at the concentration of 512 × 10^2 μM was prepared and diluted to 100 μM by a 2-fold dilution. One μL of each concentration of peptide solution was incubated with 99 μL of bacterial subculture in the 96-well plate for 18 h at 37 °C. The absorbance was determined at a wavelength of 550 nm using a Synergy HT plate reader (Bio Tek, Washington, DC, USA). […] As for those wells that were clearly visible, 20 μL of the solution was dropped onto the Mueller Hinton agar (MHA) dish and then incubated at 37 °C overnight. The lowest concentration with no colony growth was determined as the MBC.

MRSA (NCTC 12493) [2] = test: microbe, parasite or virus in culture; type: cell-based; details: MRSA (NCTC 12493)
Source text: as §1

S. aureus (NCTC 10788) [3] = test: microbe, parasite or virus in culture; type: cell-based; details: NCTC 10788, 18 h
Source text: as §1

E. coli (ATCC 8739) [4] = type: cell-based; details: ATCC 8739, 18 h
Source text: as §1

[5] = system: K. pneumoniae (ATCC 43816); type: cell-based; details: ATCC 43816, 18 h
Source text: as §1

[6] = system: P. aeruginosa (ATCC 9027); type: cell-based; details: ATCC 9027, 18 h
Source text: as §1

S. aureus (NCTC 10788) [7] = type: cell-based, Staphylococcus aureus
Method: (§2) As a previous study described in detail, the ability of R2AW and its analogues to inhibit and eradicate the formation of biofilm was investigated. The MBIC is the lowest concentration which inhibits the formation of biofilm. The MBEC is the minimum concentration that eradicates biofilm. Six bacterial strains were used, as described above. Briefly, the bacteria were cultured and then diluted to 5 × 10^5 CFU/mL. In MBIC assays, 1 μL of each concentration of R2AW and its analogues (ranging from 512 × 10^2 μM to 100 μM) was mixed with 99 μL of diluted bacterial suspension in a 96-well plate for 16-20 h at 37 °C. As for MBEC assays, 100 μL of cultured bacteria were seeded in a 96-well plate and incubated on the shaking incubator at 37 °C overnight for biofilm formation. Subsequently, each well was rinsed twice with 100 μL sterile PBS to remove planktonic cells, and then replaced with 100 μL of each concentration (ranging from 512 μM to 1 μM) of peptides. After 24 h incubation, the biofilm was washed twice with 100 μL of PBS and fixed with methanol. Next, the same volume of 0.1% crystal violet solution (Sigma-Aldrich, Gillingham, UK) was added to each well to stain the biofilm. After that, 100 μL of 30% of acetic acid (Sigma-Aldrich, Gillingham, UK) was transferred to each well for dissolution. The solutions were transferred into a new 96-well plate and the absorbances of wells was monitored using a Synergy HT plate reader set to 595 nm.

E. coli (ATCC 8739) [8] = type: cell-based, Escherichia coli
Method: as §2

MRSA (NCTC 12493) [9] = type: cell-based, methicillin-resistant Staphylococcus aureus; details: NCTC 12493
Method: as §2

[10] = system: K. pneumoniae (ATCC 43816); type: cell-based, Klebsiella pneumoniae
Method: as §2

E. faecium (NTCC 12697) [11] = type: cell-based
Method: as §2

[12] = system: P. aeruginosa (ATCC 9027); type: cell-based, Pseudomonas aeruginosa
Method: as §2

H838 = type: cell-based, human; details: 24 h
Method: (§3) Five human cancer cell lines of non-small-cell lung cancer H838, human prostate carcinoma PC-3, human neuronal glioblastoma U251MG, human breast cancer cell MCF-7, and colorectal carcinoma HCT116 were used to detect the antiproliferative abilities of R2AW and its five analogues. According to the procedures in a previous article, cells (8000 cells/well) were seeded into the 96-well tissue culture plates and incubated at 37 °C with 5% CO2 overnight. The solutions of R2AW and its analogues at concentrations of 10^−4 M to 10^−9 M were prepared in the serum-free medium. Next, cells in each well were treated with 100 μL of each peptide solution for 24 h. Subsequently, 10 μL of 5 mg/mL MTT (3-(4, 5-Dimethylthiazol-2-yl-)-2, 5-Diphehyltetrazolium Bromide) was added to each well followed by 37 °C incubation for 2 h. After that, the liquid in each well was removed and 100 μL of DMSO was added to dissolve the purple formazan. The plate was placed on a shaking incubator for 10 min, and the absorbance was detected at 550 nm using a Synergy HT plate reader (Biotech, Minneapolis, MN, USA).

HCT116 = type: cell-based, human; details: 24 h
Method: as §3

MCF-7 = type: cell-based, human; details: 24 h
Method: as §3

PC-3 = type: cell-based, human; details: 24 h
Method: as §3

U251MG = type: cell-based, human; details: 24 h
Method: as §3

[13] = system: five human cancer cell lines; type: cell-based; details: 24 h
Method: as §3

SMILES | MBC (E. faecium (NTCC 12697) [1]) | MIC (E. faecium (NTCC 12697) [1]) | MBC (MRSA (NCTC 12493) [2]) | MIC (MRSA (NCTC 12493) [2]) | MBC (S. aureus (NCTC 10788) [3]) | MIC (S. aureus (NCTC 10788) [3]) | MBC (E. coli (ATCC 8739) [4]) | MIC (E. coli (ATCC 8739) [4]) | MBC [5] | MIC [5] | MBC [6] | MIC [6] | MBEC (S. aureus (NCTC 10788) [7]) | MBIC (S. aureus (NCTC 10788) [7]) | MBEC (E. coli (ATCC 8739) [8]) | MBIC (E. coli (ATCC 8739) [8]) | MBEC [10] | MBIC [10] | MBEC (E. faecium (NTCC 12697) [11]) | MBIC (E. faecium (NTCC 12697) [11]) | further results
CSCC[C@H](NC(=O)[C@H](Cc1ccccc1)NC(=O)CN)C(=O)N[C@@H](CC(=O)O)C(=O)N[C@H](C(=O)N[C@@H](C)C(=O)N[C@@H](CCCCN)C(=O)N[C@@H](CC(N)=O)C(=O)N[C@H](C(=O)N[C@@H](C)C(=O)N[C@@H](CCCCN)C(=O)N[C@@H](CC(N)=O)C(=O)N[C@H](C(=O)N[C@@H](C)C(=O)N[C@@H](C)C(=O)N[C@H](C(=O)N[C@@H](CC(C)C)C(=O)N[C@@H](CC(C)C)C(=O)N[C@@H](CC(=O)O)C(=O)N[C@@H](CCCCN)C(=O)N[C@@H](CC(C)C)C(=O)N[C@@H](CCCCN)C(=O)O)[C@@H](C)O)C(C)C)C(C)C)[C@@H](C)O [R2AW(1-22)] (H-GFMDTAKNVAKNVAATLLDKLK-OH) | > 1202 mg/L | > 1203 mg/L | > 1202 mg/L | > 1203 mg/L | > 1202 mg/L | > 1203 mg/L | > 1202 mg/L | > 1203 mg/L | > 1202 mg/L | > 1203 mg/L | > 1202 mg/L | > 1203 mg/L | >512 µM | >512 µM | >512 µM | >512 µM | >512 µM | >512 µM | >512 µM | >512 µM | MBEC (MRSA (NCTC 12493) [9]): >512 µM; MBIC (MRSA (NCTC 12493) [9]): >512 µM; MBEC [12]: >512 µM; MBIC [12]: >512 µM; IC50 (H838): 1420 µM; IC50 (HCT116): 1120 µM; IC50 (MCF-7): 894 µM; IC50 (PC-3): 1480 µM; IC50 (U251MG): 1820 µM
CC[C@H](C)[C@@H]1NC(=O)[C@H](CCCCN)NC(=O)[C@@H](NC(=O)[C@H](CCCCN)NC(=O)[C@H](CC(C)C)NC(=O)[C@H](CCCCN)NC(=O)[C@H](CC(=O)O)NC(=O)[C@H](CC(C)C)NC(=O)[C@H](CC(C)C)NC(=O)[C@@H](NC(=O)[C@H](C)NC(=O)[C@H](C)NC(=O)[C@@H](NC(=O)[C@H](CC(N)=O)NC(=O)[C@H](CCCCN)NC(=O)[C@H](C)NC(=O)[C@@H](NC(=O)[C@H](CC(N)=O)NC(=O)[C@H](CCCCN)NC(=O)[C@H](C)NC(=O)[C@@H](NC(=O)[C@H](CC(=O)O)NC(=O)[C@H](CCSC)NC(=O)[C@H](Cc2ccccc2)NC(=O)CN)[C@@H](C)O)C(C)C)C(C)C)[C@@H](C)O)CSSC[C@@H](C(=O)O)NC(=O)CNC(=O)CNC(=O)[C@H]([C@@H](C)O)NC1=O [R2AW] (H-GFMDTAKNVAKNVAATLLDKLKCKITGGC-OH; disulfide 23-29) | 771 mg/L | 770 mg/L | 1541 mg/L | 770 mg/L | 193 mg/L | 32 µM | 193 mg/L | 32 µM | 771 mg/L | 385 mg/L | 1541 mg/L | 385 mg/L | > 512 µM | 128 µM | 512 µM | 128 µM | 512/>512 µM | 512/>512 µM | >512 µM | >512 µM | MBEC (MRSA (NCTC 12493) [9]): > 512 µM; MBIC (MRSA (NCTC 12493) [9]): 256 µM; MBEC [12]: >512 µM; MBIC [12]: >512 µM; IC50 (H838): 10.8 µM; IC50 (HCT116): 10.8 µM; IC50 (MCF-7): 33.2 µM; IC50 (PC-3): 5.09 µM; IC50 (U251MG): 30.8 µM; IC50 [13]: 5.09 to 33.2 µM
CSCC[C@H](NC(=O)[C@H](Cc1ccccc1)NC(=O)CN)C(=O)N[C@@H](CC(=O)O)C(=O)N[C@H](C(=O)N[C@@H](C)C(=O)N[C@@H](CCCCN)C(=O)N[C@@H](CC(N)=O)C(=O)N[C@H](C(=O)N[C@@H](C)C(=O)N[C@@H](CCCCN)C(=O)N[C@@H](CC(N)=O)C(=O)N[C@H](C(=O)N[C@@H](C)C(=O)N[C@@H](C)C(=O)N[C@H](C(=O)N[C@@H](CC(C)C)C(=O)N[C@@H](CC(C)C)C(=O)N[C@@H](CC(=O)O)C(=O)N[C@@H](CCCCN)C(=O)N[C@@H](CC(C)C)C(=O)N[C@@H](CCCCN)C(N)=O)[C@@H](C)O)C(C)C)C(C)C)[C@@H](C)O [R2AW(1-22)-NH2] (H-GFMDTAKNVAKNVAATLLDKLK-NH2) | 601 mg/L | 601 mg/L | 601 mg/L | 601 mg/L | 150 mg/L | 150 mg/L | 301 mg/L | 300 mg/L | 601 mg/L | 601 mg/L | > 1202 mg/L | 1202 mg/L | > 512 µM | 128 µM | 512 µM | 256 µM | 512/>512 µM | 512/>512 µM | >512 µM | >512 µM | MBEC [12]: >512 µM; MBIC [12]: >512 µM; IC50 (H838): 58.9 µM; IC50 (HCT116): 609 µM; IC50 (MCF-7): 374 µM; IC50 (PC-3): 194 µM; IC50 (U251MG): 516 µM
